Laboratory results reported in ChEMBL document CHEMBL5390209, “Spinosyn A and Its Derivative Inhibit Colorectal Cancer Cell Growth via the EGFR Pathway” (J Nat Prod, 2023).
Active and inactive are the calls of the source. The calls are words filed in the database; no cut-off is given here.

Assays:
[1] = target: Epidermal growth factor receptor (Homo sapiens) (UniProt P00533); assay: Inhibition of EGFR phosphorylation in human HT-29 cells incubated for 24 hrs by Western blotting analysis; type: cell-based
[2] = system: HT-29; assay: Inhibition of EGFR in human HT-29 cells xenografted in BALB/c nude mouse assessed as EGFR protein level in tumor at 5 mg/kg/day, ip administrated for every other day and measured after 28 days by Western blotting analysis; type: functional, organism-based; details: time 28.0 day
[3] = system: SW480; assay: Antiproliferative activity against double EGFR/HER2 knockout human SW480 cells assessed as reduction in cell viability incubated for 48 hrs by MTT assay; type: functional, cell-based
[4] = system: HT-29; assay: Antitumor activity against human HT-29 cells xenografted Balb/c mouse assessed as reduction in tumor growth at 5 mg/kg/day, ip administrated for every other day and measured after 28 days; type: functional, organism-based; details: time 28.0 day
[5] = target: Receptor tyrosine-protein kinase erbB-2 (Homo sapiens) (UniProt P04626); assay: Inhibition of HER2 in human SW480 cells incubated for 24 hrs by Western blotting analysis; type: cell-based
[6] = target: Epidermal growth factor receptor (Homo sapiens) (UniProt P00533); assay: Inhibition of EGFR in human HT-29 cells incubated for 24 hrs by Western blotting analysis; type: cell-based; details: dose 3.75-15 µM
[7] = system: HT-29; assay: Antiproliferative activity against HER2 knockout human HT-29 cells assessed as reduction in cell viability incubated for 48 hrs by MTT assay; type: functional, cell-based
[8] = target: Epidermal growth factor receptor (Homo sapiens) (UniProt P00533); assay: Inhibition of EGFR in human HT-29 cells assessed as reduction in MEK1/2 phosphorylation level at 3.75 to 15 uM incubated for 24 hrs by Western blotting analysis; type: cell-based; details: dose 3.75-15 µM
[9] = system: SW480; assay: Antiproliferative activity against human SW480 cells assessed as cell growth inhibition incubated for 48 hrs by MTT assay; type: functional, cell-based; details: dose >= 10.0 µM
[10] = Toxicity in human HT-29 cells xenografted Balb/c mouse assessed as change in kidney pathology at 5 mg/kg/day, ip administrated for every other day and measured after 28 days; type: organism-based; details: in vivo, 672 h, time 28 day
[11] = target: Epidermal growth factor receptor (Homo sapiens) (UniProt P00533); assay: Inhibition of EGFR phosphorylation in human SW480 cells incubated for 24 hrs by Western blotting analysis; type: cell-based
[12] = system: HT-29; assay: Antiproliferative activity against human HT-29 cells assessed as cell growth inhibition incubated for 48 hrs by MTT assay; type: functional, cell-based; details: for IC50: HT-29, 48 h
[13] = system: HCT-116; assay: Antiproliferative activity against human HCT-116 cells assessed as cell growth inhibition incubated for 48 hrs by MTT assay; type: functional, cell-based; details: dose >= 10.0 µM
[14] = system: DLD-1; assay: Antiproliferative activity against human DLD-1 cells assessed as cell growth inhibition incubated for 48 hrs by MTT assay; type: functional, cell-based; details: dose >= 10.0 µM
[15] = system: SW480; assay: Inhibition of colony formation in EGFR knockdown human SW480 cells at 6 uM incubated for 14 days by crystal violet staining based colony formation assay; type: functional, cell-based; details: time 14.0 day
[16] = target: Receptor tyrosine-protein kinase erbB-2 (Homo sapiens) (UniProt P04626); assay: Inhibition of HER2 in human HT-29 cells incubated for 24 hrs by Western blotting analysis; type: cell-based
[17] = system: HT-29; assay: Antiproliferative activity against double EGFR/HER2 knockout human HT-29 cells assessed as reduction in cell viability incubated for 48 hrs by MTT assay; type: functional, cell-based
[18] = system: HT-29; assay: Antiproliferative activity against EGFR knockout human HT-29 cells assessed as reduction in cell viability incubated for 48 hrs by MTT assay; type: functional, cell-based
[19] = system: SW-620; assay: Antiproliferative activity against human SW620 cells assessed as cell growth inhibition incubated for 48 hrs by MTT assay; type: functional, cell-based; details: dose >= 10.0 µM
[20] = system: DLD-1; assay: Inhibition of colony formation in human DLD-1 cells at 6 uM incubated for 14 days by crystal violet staining based colony formation assay; type: functional, cell-based; details: time 14.0 day
[21] = Toxicity in human HT-29 cells xenografted Balb/c mouse assessed as change in body weight at 5 mg/kg/day, ip administrated for every other day and measured after 6 days; type: organism-based; details: in vivo, 144 h, time 6 day
[22] = system: SW480; assay: Antiproliferative activity against EGFR knockout human SW480 cells assessed as reduction in cell viability incubated for 48 hrs by MTT assay; type: functional, cell-based
[23] = target: Epidermal growth factor receptor (Homo sapiens) (UniProt P00533); assay: Inhibition of EGFR in human SW480 cells incubated for 24 hrs by Western blotting analysis; type: cell-based
[24] = system: HT-29; assay: Inhibition of colony formation in double EGFR/HER2 knockdown human HT-29 cells at 6 uM incubated for 14 days by crystal violet staining based colony formation assay; type: functional, cell-based; details: time 14.0 day
[25] = system: LoVo; assay: Antiproliferative activity against human LoVo cells assessed as cell growth inhibition incubated for 48 hrs by MTT assay; type: functional, cell-based; details: dose >= 10.0 µM
[26] = system: HT-29; assay: Inhibition of colony formation in human HT-29 cells at 6 uM incubated for 14 days by crystal violet staining based colony formation assay; type: functional, cell-based; details: time 14.0 day
[27] = target: Epidermal growth factor receptor (Homo sapiens) (UniProt P00533); assay: Inhibition of EGFR in human HT-29 cells assessed as reduction in MEK1/2 phosphorylation level at 15 uM by Western blot analysis; type: cell-based; details: time 3-15 hrs, TDE = time-dependent effect
[28] = target: Receptor tyrosine-protein kinase erbB-2 (Homo sapiens) (UniProt P04626); assay: Inhibition of HER2 phosphorylation in human HT-29 cells incubated for 24 hrs by Western blotting analysis; type: cell-based
[29] = target: Receptor tyrosine-protein kinase erbB-2 (Homo sapiens) (UniProt P04626); assay: Inhibition of HER2 phosphorylation in human SW480 cells incubated for 24 hrs by Western blotting analysis; type: cell-based
[30] = system: HT-29; assay: Antitumor activity against human HT-29 cells xenografted Balb/c mouse assessed as reduction in Ki67 expression level at 5 mg/kg/day, ip administrated for every other day and measured after 28 days by immunohistochemistry staining method; type: functional, organism-based; details: time 28.0 day
[31] = Toxicity in human HT-29 cells xenografted Balb/c mouse assessed as change in liver pathology at 5 mg/kg/day, ip administrated for every other day and measured after 28 days; type: organism-based; details: in vivo, 672 h, time 28 day
[32] = system: RKO; assay: Antiproliferative activity against human RKO cells assessed as cell growth inhibition incubated for 48 hrs by MTT assay; type: functional, cell-based
[33] = Toxicity in human HT-29 cells xenografted Balb/c mouse assessed as change in kidney pathology at 2.5 mg/kg/day, ip administrated for every other day and measured after 28 days; type: organism-based; details: in vivo, 672 h, time 28 day
[34] = target: Epidermal growth factor receptor (Homo sapiens) (UniProt P00533); assay: Inhibition of EGFR in human HT-29 cells assessed as reduction in Erk1/2 phosphorylation level at 2 uM by Western blotting analysis; type: cell-based; details: time 3-15 hrs, TDE = time-dependent effect
[35] = Toxicity in human HT-29 cells xenografted Balb/c mouse assessed as change in body weight at 2.5 mg/kg/day, ip administrated for every other day and measured after 6 days; type: organism-based; details: in vivo, 144 h, time 6 day
[36] = system: HT-29; assay: Inhibition of EGFR in human HT-29 cells xenografted in BALB/c nude mouse assessed as EGFR protein level in tumor at 2.5 mg/kg/day, ip administrated for every other day and measured after 28 days by Western blotting analysis; type: functional, organism-based; details: time 28.0 day
[37] = target: Epidermal growth factor receptor (Homo sapiens) (UniProt P00533); assay: Inhibition of EGFR in human HT-29 cells at 2 uM by Western blot analysis; type: cell-based; details: time 3-15 hrs, TDE = time-dependent effect
[38] = system: DLD-1; assay: Inhibition of colony formation in human DLD-1 cells at 0.75 uM incubated for 14 days by crystal violet staining based colony formation assay; type: functional, cell-based; details: time 14.0 day
[39] = system: HT-29; assay: Antitumor activity against human HT-29 cells xenografted Balb/c mouse assessed as inhibited tumor growth at 2.5 mg/kg/day, ip administrated for every other day and measured after 6 days; type: functional, organism-based; details: time 6.0 day
[40] = system: HT-29; assay: Antitumor activity against human HT-29 cells xenografted Balb/c mouse assessed as reduction in tumor cell density at 2.5 mg/kg/day, ip administrated for every other day and measured after 28 days by Hematoxylin and Eosin staining based method; type: functional, organism-based; details: time 28.0 day
[41] = target: Epidermal growth factor receptor (Homo sapiens) (UniProt P00533); assay: Inhibition of EGFR in human SW480 cells assessed as reduction in STAT3 phosphorylation level at 0.5 to 2 uM incubated for 24 hrs by Western blot analysis; type: cell-based; details: dose 0.5-2 µM

Chain of Epidermal growth factor receptor (Homo sapiens) (P00533 whole entry): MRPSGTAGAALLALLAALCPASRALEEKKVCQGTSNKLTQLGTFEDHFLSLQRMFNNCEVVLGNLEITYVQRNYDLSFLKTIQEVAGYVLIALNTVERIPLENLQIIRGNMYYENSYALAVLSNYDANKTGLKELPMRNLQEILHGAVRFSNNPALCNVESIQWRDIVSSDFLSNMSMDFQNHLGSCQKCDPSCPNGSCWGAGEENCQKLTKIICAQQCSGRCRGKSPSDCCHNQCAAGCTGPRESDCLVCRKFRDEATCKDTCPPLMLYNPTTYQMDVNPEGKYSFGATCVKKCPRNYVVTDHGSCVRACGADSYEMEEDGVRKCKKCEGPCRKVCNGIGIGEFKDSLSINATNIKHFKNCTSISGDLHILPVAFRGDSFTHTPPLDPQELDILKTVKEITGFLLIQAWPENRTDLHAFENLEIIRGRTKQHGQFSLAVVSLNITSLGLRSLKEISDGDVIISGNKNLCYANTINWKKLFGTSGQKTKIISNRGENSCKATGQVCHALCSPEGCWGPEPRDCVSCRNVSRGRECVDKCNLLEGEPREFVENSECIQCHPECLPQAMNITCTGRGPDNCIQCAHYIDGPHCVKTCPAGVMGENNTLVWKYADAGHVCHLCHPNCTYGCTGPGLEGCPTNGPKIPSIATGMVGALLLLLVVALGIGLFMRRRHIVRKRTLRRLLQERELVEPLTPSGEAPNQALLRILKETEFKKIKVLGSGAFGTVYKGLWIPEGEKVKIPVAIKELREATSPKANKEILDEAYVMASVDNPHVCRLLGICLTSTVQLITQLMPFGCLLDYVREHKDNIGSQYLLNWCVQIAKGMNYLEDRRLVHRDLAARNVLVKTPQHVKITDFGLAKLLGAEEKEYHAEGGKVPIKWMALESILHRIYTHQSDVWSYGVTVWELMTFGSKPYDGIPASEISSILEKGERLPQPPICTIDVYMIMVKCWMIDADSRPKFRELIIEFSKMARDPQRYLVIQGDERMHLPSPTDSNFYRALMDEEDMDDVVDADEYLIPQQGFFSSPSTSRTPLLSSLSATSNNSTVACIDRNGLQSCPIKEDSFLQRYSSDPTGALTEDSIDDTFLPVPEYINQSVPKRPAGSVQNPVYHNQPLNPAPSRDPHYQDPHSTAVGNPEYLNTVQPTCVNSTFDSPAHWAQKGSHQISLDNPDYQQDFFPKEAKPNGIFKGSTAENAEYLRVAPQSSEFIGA
Chain of Receptor tyrosine-protein kinase erbB-2 (Homo sapiens) (P04626 whole entry): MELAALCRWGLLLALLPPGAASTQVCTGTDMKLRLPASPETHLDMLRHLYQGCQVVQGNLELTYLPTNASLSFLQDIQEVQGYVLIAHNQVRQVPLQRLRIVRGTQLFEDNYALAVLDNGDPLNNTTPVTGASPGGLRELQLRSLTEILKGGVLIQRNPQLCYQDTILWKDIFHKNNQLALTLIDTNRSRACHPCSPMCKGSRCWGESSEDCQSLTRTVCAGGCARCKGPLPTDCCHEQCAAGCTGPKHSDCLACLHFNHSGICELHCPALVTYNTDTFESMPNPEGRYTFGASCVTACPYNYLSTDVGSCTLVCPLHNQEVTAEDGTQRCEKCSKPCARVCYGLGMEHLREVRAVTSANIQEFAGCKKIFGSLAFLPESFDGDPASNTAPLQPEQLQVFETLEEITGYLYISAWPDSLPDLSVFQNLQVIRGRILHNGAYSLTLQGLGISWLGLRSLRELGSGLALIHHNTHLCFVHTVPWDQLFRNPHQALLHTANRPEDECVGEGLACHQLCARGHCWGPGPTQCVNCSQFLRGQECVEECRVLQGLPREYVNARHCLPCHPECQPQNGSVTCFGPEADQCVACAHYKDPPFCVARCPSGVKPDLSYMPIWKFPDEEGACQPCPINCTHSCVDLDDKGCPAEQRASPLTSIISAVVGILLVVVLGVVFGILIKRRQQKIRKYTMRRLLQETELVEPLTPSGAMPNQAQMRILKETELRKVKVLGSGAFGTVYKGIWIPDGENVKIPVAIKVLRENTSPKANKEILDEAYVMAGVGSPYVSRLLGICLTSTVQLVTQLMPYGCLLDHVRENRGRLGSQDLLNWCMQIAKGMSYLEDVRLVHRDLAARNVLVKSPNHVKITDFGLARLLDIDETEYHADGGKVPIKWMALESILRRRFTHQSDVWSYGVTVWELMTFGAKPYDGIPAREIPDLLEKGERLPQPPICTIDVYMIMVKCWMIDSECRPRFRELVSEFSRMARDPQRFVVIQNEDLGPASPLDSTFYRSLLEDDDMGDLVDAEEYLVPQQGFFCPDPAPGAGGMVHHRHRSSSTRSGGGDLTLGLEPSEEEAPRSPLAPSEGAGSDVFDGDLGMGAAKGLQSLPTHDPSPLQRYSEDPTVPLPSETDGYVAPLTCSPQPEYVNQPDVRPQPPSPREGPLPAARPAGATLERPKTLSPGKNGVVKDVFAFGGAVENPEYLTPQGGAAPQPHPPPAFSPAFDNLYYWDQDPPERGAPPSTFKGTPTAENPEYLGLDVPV

SMILES | inhibition [1] | Activity [3] | inhibition [5] | inhibition [6] | Activity [7] | Activity [9] | inhibition [11] | Activity [12] | IC50 [12] | Activity [13] | Activity [14] | inhibition [16] | Activity [17] | Activity [18] | Activity [19] | Activity [22] | inhibition [23] | Activity [25] | inhibition [28] | inhibition [29] | further results
CC[C@H]1CCC[C@H](O[C@H]2CC[C@H](N(C)C)[C@@H](C)O2)[C@@H](C)C(=O)C2=C[C@@H]3[C@@H](C=C[C@@H]4C[C@@H](O[C@@H]5O[C@@H](C)[C@H](OC)[C@@H](OC)[C@H]5OC)C[C@@H]34)[C@@H]2CC(=O)O1 [SPINOSYN A] | Dose-Dependent Effect | inactive | Dose-Dependent Effect | Dose-Dependent Effect | inactive | Dose-Dependent Effect | Dose-Dependent Effect | Dose-Dependent Effect | 7.3 µM | Dose-Dependent Effect | Dose-Dependent Effect | Dose-Dependent Effect | inactive | inactive | Dose-Dependent Effect | inactive | Dose-Dependent Effect | Dose-Dependent Effect | Dose-Dependent Effect | Dose-Dependent Effect | inhibition [2]: Active; Activity [4]: Active; inhibition [8]: Active; Activity [10]: Non-Toxic; Activity [15]: Active; inhibition [20]: Active; Activity [21]: Non-Toxic; Activity [24]: inactive; inhibition [26]: Active; inhibition [27]: Tde; Activity [30]: Active; Activity [31]: Non-Toxic; IC50 [32]: 17 µM; Activity ([32]; dose >= 10.0 µM): Dose-Dependent Effect
CC[C@H]1CCC[C@H](O[C@H]2CC[C@H](N(C)CC(O)CN3CCNCC3)[C@@H](C)O2)[C@@H](C)C(=O)C2=C[C@@H]3[C@@H](C=C[C@@H]4C[C@@H](O[C@@H]5O[C@@H](C)[C@H](OC)[C@@H](OC)[C@H]5OC)C[C@@H]34)[C@@H]2CC(=O)O1 (stereo not given in full) | Dose-Dependent Effect | inactive | Dose-Dependent Effect | Dose-Dependent Effect | inactive | Dose-Dependent Effect | Dose-Dependent Effect | Dose-Dependent Effect | 0.75 µM | Dose-Dependent Effect | Dose-Dependent Effect | Dose-Dependent Effect | inactive | inactive | Dose-Dependent Effect | inactive | Dose-Dependent Effect | Dose-Dependent Effect | Dose-Dependent Effect | Dose-Dependent Effect | Activity [33]: Non-Toxic; inhibition [34]: Tde; Activity [35]: Non-Toxic; inhibition [36]: Active; inhibition [37]: Tde; inhibition [38]: Active; inhibition [39]: Active; Activity [40]: Active; inhibition [41]: Active; IC50 [32]: 3.3 µM; inhibition ([32]; dose >= 10.0 µM): Dose-Dependent Effect
